The source made the active and inactive calls. The calls are words filed in the database; no cut-off is given here.
Experiments:
[1] = target: Sphingosine 1-phosphate receptor 1 (Homo sapiens, UniProt P21453); assay: Agonist activity at S1P1 receptor by Tango assay; assay type: functional
[2] = target: Sphingosine 1-phosphate receptor 3 (Homo sapiens, UniProt Q99500); assay: Agonist activity at human S1P3 receptor assessed as Ca2+ mobilization by GeneBLAzer assay; assay type: functional
[3] = tested on: Mus musculus; assay: Immunosuppressive activity in naive B6 mouse assessed as peripheral lymphocytes at 1 mg/kg, po at 4 hrs relative to control; assay type: functional
[4] = tested on: Mus musculus; assay: Immunosuppressive activity in naive B6 mouse assessed as peripheral lymphocytes at 1 mg/kg, po at 24 hrs relative to control; assay type: functional
[5] = Ratio of drug level in brain to blood in mouse at 2 mg/kg, ip at 1 hr; assay type: ADME, organism-based; design: dose 2 mg/kg, route intraperitoneal; conditions: brain and blood
[6] = Ratio of drug level in brain to blood in mouse at 2 mg/kg, ip at 2 hrs; assay type: ADME, organism-based; design: dose 2 mg/kg, route intraperitoneal; conditions: brain and blood
[7] = Ratio of drug level in brain to blood in mouse at 2 mg/kg, ip at 4 hrs; assay type: ADME, organism-based; design: dose 2 mg/kg, route intraperitoneal; conditions: brain and blood
[8] = Clearance in C57BL/6 mouse blood at 1 mg/kg, iv and 2 mg/kg, po; assay type: ADME, organism-based
[9] = Volume of distribution at steady state in C57BL/6 mouse blood at 1 mg/kg, iv and 2 mg/kg, po; assay type: ADME, organism-based; conditions: read-out: Vdss
[10] = Cmax in C57BL/6 mouse blood at 1 mg/kg, iv and 2 mg/kg, po; assay type: ADME, organism-based
[11] = Terminal half life in C57BL/6 mouse blood at 1 mg/kg, iv and 2 mg/kg, po; assay type: ADME, organism-based; conditions: read-out: beta t1/2 (converted)
[12] = Oral bioavailability in C57BL/6 mouse blood at 2 mg/kg; assay type: ADME, organism-based
[13] = organism: Mus musculus; assay: Immunosuppressive activity in C57BL/6 mouse autoimmune encephalomyelitis model assessed as efficacy relative to fingolimod; assay type: functional, organism-based

Sequence of Sphingosine 1-phosphate receptor 1 (P21453 whole entry): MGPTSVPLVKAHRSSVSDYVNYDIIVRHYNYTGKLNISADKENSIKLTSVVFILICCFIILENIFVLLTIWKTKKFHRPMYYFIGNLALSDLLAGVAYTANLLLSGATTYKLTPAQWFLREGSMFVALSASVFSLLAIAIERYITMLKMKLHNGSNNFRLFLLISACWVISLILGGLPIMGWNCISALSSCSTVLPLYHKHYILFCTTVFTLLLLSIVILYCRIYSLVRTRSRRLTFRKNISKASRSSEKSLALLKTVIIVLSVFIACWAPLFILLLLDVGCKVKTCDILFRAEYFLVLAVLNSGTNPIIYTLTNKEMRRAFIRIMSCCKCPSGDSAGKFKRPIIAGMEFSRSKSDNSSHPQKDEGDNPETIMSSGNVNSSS
Sequence of Sphingosine 1-phosphate receptor 3 (Q99500 whole entry): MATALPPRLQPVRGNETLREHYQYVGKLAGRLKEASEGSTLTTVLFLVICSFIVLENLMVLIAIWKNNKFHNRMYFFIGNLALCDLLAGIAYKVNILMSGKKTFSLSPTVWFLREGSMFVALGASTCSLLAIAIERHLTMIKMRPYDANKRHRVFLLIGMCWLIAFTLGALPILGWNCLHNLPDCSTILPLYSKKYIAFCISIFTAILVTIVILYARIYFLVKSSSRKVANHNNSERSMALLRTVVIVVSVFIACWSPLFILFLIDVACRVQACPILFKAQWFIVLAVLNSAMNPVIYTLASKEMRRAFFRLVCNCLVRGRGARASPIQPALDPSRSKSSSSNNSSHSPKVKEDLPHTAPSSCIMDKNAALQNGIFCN

SMILES | EC50 [1] | EC50 [2] | also measured
COc1ccc(-c2nc(-c3cccc4c(CCC(=O)O)c[nH]c34)no2)cc1OC | 1260 nM | > 10000 nM | 
CC(C)Oc1ccc(-c2nc(-c3cccc4c(CCCC(=O)O)c[nH]c34)no2)cc1Cl | 0.398 nM | > 10000 nM | 
O=C(O)CCc1c[nH]c2c(-c3noc(-c4ccc(Cl)cc4)n3)cccc12 | 3160 nM | > 10000 nM | 
CCCn1cc(CCC(=O)O)c2cccc(-c3noc(-c4ccc(OC(C)C)c(Cl)c4)n3)c21 | 200 nM | > 10000 nM | 
CC1(C)Oc2ccc(-c3nc(-c4cccc5c(CCC(=O)O)c[nH]c45)no3)cc2O1 | 398 nM | > 10000 nM | 
Cc1cc(-c2nc(-c3cccc4c(CCC(=O)O)c[nH]c34)no2)cnc1OC(C)C | 1.58 nM | > 10000 nM | 
CC(C)Oc1ccc(-c2nc(-c3ccc4c(CCC(=O)O)c[nH]c4c3)no2)cc1Cl | 0.251 nM | > 10000 nM | 
O=C(O)CCc1c[nH]c2c(-c3noc(C4CCOCC4)n3)cccc12 | > 10000 nM | > 10000 nM | 
O=C(O)CCc1c[nH]c2c(-c3noc(C4CCCCC4)n3)cccc12 | > 10000 nM | > 10000 nM | 
CC(C)Oc1ccc(-c2nc(-c3ccc(F)c4c(CCC(=O)O)cn(C)c34)no2)cc1Cl | < 0.01 nM | > 10000 nM | Activity [3]: 21%; Activity [4]: 114%; Kp at 1 h [5]: 0.35; Kp at 2 h [6]: 0.48; Kp at 4 h [7]: 0.48; clearance [8]: 3.22 mL/min/kg; Vd [9]: 0.84 L/kg; Cmax [10]: 1700 ng/mL; half-life [11]: 3.83 h; bioavailability [12]: 100%; Efficacy [13]: Active
O=C(O)CCc1c[nH]c2c(-c3noc(-c4ccc5c(c4)OCCO5)n3)cccc12 | > 3160 nM | > 10000 nM | 
CC(C)Oc1ccc(-c2nc(-c3cccc4c(CCCCC(=O)O)c[nH]c34)no2)cc1Cl | 0.0501 nM | > 10000 nM | 
CC(C)Oc1ccc(-c2nc(-c3c(F)ccc4c(CCC(=O)O)cn(C)c34)no2)cc1Cl | 25.1 nM | > 10000 nM | 
CC(C)Oc1ccc(-c2nc(-c3cccc4c(CCC(=O)O)cn(C)c34)no2)cc1Cl | 0.00631 nM | > 10000 nM | 
CC(C)Oc1ccc(-c2nc(-c3ccc4ccn(CCC(=O)O)c4c3)no2)cc1Cl | 398 nM | > 10000 nM | 
CC(C)Oc1ncc(-c2nc(-c3cccc4c(CCC(=O)O)c[nH]c34)no2)cc1C(F)(F)F | 0.251 nM | > 10000 nM | 
CC(C)Oc1ccc(-c2nc(-c3cccc4c(CCC(=O)O)cn(C(C)C)c34)no2)cc1Cl | 20 nM | > 10000 nM | 

Further lines, with some results ahead:

EC50 [1] | EC50 [2] | SMILES | also measured
6.31 nM | > 10000 nM | COc1ccc(-c2noc(-c3ccc(OC(C)C)c(Cl)c3)n2)c2c1c(CCC(=O)O)cn2C | 
0.398 nM | > 10000 nM | CC(C)Oc1ncc(-c2nc(-c3cccc4c(CCC(=O)O)c[nH]c34)no2)cc1Cl | 
0.0316 nM | > 10000 nM | CC(C)Oc1ccc(-c2nc(-c3cccc4c(CCC(N)=O)c[nH]c34)no2)cc1Cl | 
0.0794 nM | > 10000 nM | CC(C)Oc1ccc(-c2nc(-c3cccc4c(CCc5nnn[nH]5)c[nH]c34)no2)cc1Cl | 
0.2 nM | > 10000 nM | CC(C)Oc1ccc(-c2nc(-c3ccc4[nH]c(CCC(=O)O)cc4c3)no2)cc1Cl | 
2.51 nM | > 10000 nM | CC(C)Oc1ccc(-c2nc(-c3ccc4c(ccn4CCC(=O)O)c3)no2)cc1Cl | 
3.16 nM | > 10000 nM | CCOc1ccc(-c2nc(-c3cccc4c(CCC(=O)O)c[nH]c34)no2)cc1OCC | 
100 nM | > 10000 nM | COc1cc(-c2nc(-c3cccc4c(CCC(=O)O)c[nH]c34)no2)cnc1OC(C)C | 
39.8 nM | > 10000 nM | CC(C)Oc1ccc(-c2nc(-c3cccc4c(CC(=O)O)c[nH]c34)no2)cc1Cl | 
5.01 nM | > 10000 nM | CC(C)Oc1ccc(-c2nc(-c3cccc4c(C(=O)O)c[nH]c34)no2)cc1Cl | 
0.316 nM | > 10000 nM | CCn1cc(CCC(=O)O)c2cccc(-c3noc(-c4ccc(OC(C)C)c(Cl)c4)n3)c21 | 
0.0398 nM | > 10000 nM | CNC(=O)CCc1c[nH]c2c(-c3noc(-c4ccc(OC(C)C)c(Cl)c4)n3)cccc12 | 
0.0126 nM | > 10000 nM | CC(C)Oc1ccc(-c2nc(-c3cccc4c(CCC(=O)O)c[nH]c34)no2)cc1Cl | 
< 0.01 nM | > 10000 nM | CC(C)Oc1ccc(-c2nc(-c3cc(F)cc4c(CCC(=O)O)cn(C)c34)no2)cc1Cl | 

Reference: ChEMBL document CHEMBL2016540, “Indole-propionic acid derivatives as potent, S1P3-sparing and EAE efficacious sphingosine-1-phosphate 1 (S1P1) receptor agonists” (Bioorg Med Chem Lett, 2012)
